Assays:
Assay type in all cases: cell-based, human
[1] = test system: LC3 in HepG2 cells; assay: Autophagy flux (LC3I to LC3II conversion) with Bafilomycin; conditions: Uttroside B 500 nM + Bafilomycin 10 nM, 24 h
Experimental: Concentration dependent effect of BafilomycinAl on the endogenous conversion of LC3I to LC3II in HepG2 cells. Cells were treated with Bafilomycin Al at different concentration and the whole cell lysate was resolved on a 15% gel and immunoblotted against LC3 antibody. Uttroside B is an autophagy inducer in HepG2 cells as analysed by autophagy flux using Bafilomycin Al. […] The increase in LC3 II could not be considered as a fool proof of autophagic induction because a blockage in any step leading from autophagosome maturation to its fusion with lysosomes could cause its accumulation. So, the effect of Uttroside B in HepG2 cells were analyzed for autophagy flux, a more accurate read out of autophagy on co-treatment with Bafilomycin, an autophagy-lysosome inhibitor. Bafilomycin A, blocks autophagy by blocking the fusion of autophagosome with lysosome which cause the accumulation of autophagosome or LC3. First, the concentration of Bafilomycin Al required for saturating the blockage of autophagy-lysosome fusion was standardized. The efficacy of Bafilomycin Al, in terms of blocking autophagosome degradation in HepG2, was found peaked at 10 nM, beyond which no further accumulation of LC3 II was noted, which matched with the earlier reports.^32,37,38 […]

[2] = test system: HepG2 cells; assay: Acridine orange staining for acidic vesicular organelles; conditions: HepG2, cytotoxic concentration, 24 h
Experimental: The presence of acidic vesicles, which are characteristics of autophagosome can be analyzed using this method. Acridine orange stains the nucleus green and the acidic vesicular organellae (AVOs) as red.^32 To detect the presence of AVOs in HepG2 cells, 5×10^3 were seeded in 96 well plates, and treated with Uttroside B and incubated for 24 h. The cells were rinsed with 1× PBS twice. The treated cells were then stained with acridine orange, which was added at a final concentration of 1 μg/mL and incubated for 15 min and immediately photographed using a fluorescent microscope.
FIG. 18 is a representative image showing that Uttroside B induces acidic vacuole formation in HepG2 cells by Acridine orange staining. To further confirm the autophagic induction by Uttroside B in HepG2 cells, the cells were exposed to cytotoxic concentration of Uttroside B for a period of 24 h and stained with Acridine orange dye. AO orange stains nucleus green and acidic vesicular organelle, mainly autophagosome, bright red. It crosses into acidic compartments and becomes protonated. The protonated dye stacks and stacked acridine orange emits in the red range.

[3] = test system: HepG2 cells; assay: Phase contrast microscopy of morphological changes in HepG2 cells
Experimental: FIG. 2A is a graph comparison of IC50 of Uttroside B in a panel of cancer cells of different origin. The cancer cell lines HeLa, A375, HepG2, MDA-MB-231, HL 60, A549 and HCT116 were treated with Uttroside B as indicated, incubated for 72 h and the cell viability was assessed by MTT assay. FIG. 2B is a graph showing dose dependent effect of Uttroside B in the liver cancer cell lines and in normal immortalized hepatocytes. The liver cancer cell lines HepG2, Hep3B, SKHEP-1, Huh-7 and normal hepatocytes (Chang liver), were treated with Uttroside B incubated for 72 h and the cell viability was assessed by MTT assay. FIG. 2C is a graph comparison of IC50 of Uttroside B with sorafenib. HepG2 cells were treated with Uttroside B as indicated, incubated for 72 h, and the cell viability was assessed by MTT assay. FIG. 2D is an image of the morphological changes induced by Uttroside B in HepG2 cells. […] FIG. 2E is an image showing Uttroside B inhibits the clonogenic potential of HepG2 cells. HepG2 cells were treated with different concentrations of Uttroside B for 72 h and the clonogenic assay was performed. FIG. 2F is a graph comparison of efficacy of Uttroside B in inhibiting the clonogenic potential of HepG2 cells. The clones developed were counted and plotted as a graph. Colony containing more than four cells was counted as one clone. […]

C[C@H](CC[C@@]1(O)O[C@H]2C[C@H]3[C@@H]4CC[C@H]5C[C@@H](O[C@@H]6O[C@H](CO)[C@H](O[C@@H]7O[C@H](CO)[C@@H](O)[C@H](O[C@@H]8OC[C@@H](O)[C@H](O)[C@H]8O)[C@H]7O[C@@H]7O[C@H](CO)[C@@H](O)[C@H](O)[C@H]7O)[C@H](O)[C@H]6O)CC[C@]5(C)[C@H]4CC[C@]3(C)[C@H]2[C@@H]1C)CO[C@@H]1O[C@H](CO)[C@@H](O)[C@H](O)[C@H]1O [Uttroside B]
LC3II on co-treatment with Bafilomycin [1]: surplus accumulation of LC3II | acidic vacuole formation (Acridine orange) [2]: AO positivity, a preliminary indication of increased autophagosomes was clearly visible | morphological changes characteristic of apoptosis ([3]; 72 h, dose dependent): Nuclear condensation, membrane blebbing and formation of apoptotic bodies | vacuole formation ([3]; HepG2, 24 h): induces vacuole formation

Source: patent US11607422B2, “Uttroside B and derivatives thereof as therapeutics for hepatocellular carcinoma” (Rajiv Gandhi Centre for Biotechnology, an Autonomous …, priority 2016, dated 2023)
